Results on seven molecules are retold here after article PMC4734850, “Tyrosinase inhibitory activity of flavonoids from Artocarpus heterophyllous” (Chemistry Central Journal, 2016).

Where two headings read alike, the source gives them in different places.

The target of assay [1] is T1, Tyrosinase (EC 1.14.18.1) from mushroom (Agaricus bisporus, UniProt C7FF04).
T1 construct: purchased Sigma Chemical Co. (St. Louis, MO, USA)
Kind of assay: Tyrosinase inhibitory assay (L-DOPA oxidation, absorbance at 475 nm). Format: biochemical. How it is done:
Tyrosinase (EC 1.14.18.1) from mushroom (3933 U/mL) and L-dihydroxyphenylalanine (L-DOPA) were obtained from Sigma Chemical Co. (St. Louis, MO, USA). […] Other chemicals were of the highest grade available.
All the samples were first dissolved in DMSO and used for the actual experiment at concentrations of […] (or µM for pure compounds). The tyrosinase inhibitory activity assay was performed as previously described by Arung et al.. The assay mixtures consisting of 1900 µL of test solution in 0.1 M phosphate buffer pH 6.8 and 100 µL of enzyme solution (15 U/mL in 0.1 M phosphate buffer pH 6.8) was prepared immediately before use. After preincubation at room temperature for 30 min, the reaction was initiated by the addition of 1000 µL of substrate solution (1.5 mM L-DOPA in 0.1 M phosphate buffer pH 6.8). The assay mixture was incubated at room temperature for 7 min, and the absorbance at 475 nm was measured with a Shimadzu UV-1800 spectrophotometer. […] Tyrosinase inhibitory activity was expressed as the percentage inhibitory of enzyme tyrosinase in the above assay system, calculated as (1 − B/A) × 100, where A and B are the activities of the enzyme without and with test material. IC50 values were calculated from the mean values of data from four determinations.

The next assay deals with T2, mushroom tyrosinase (Agaricus bisporus, UniProt C7FF04).
T2 construct: purchased Sigma Chemical Co. (St. Louis, MO, USA)
T2 sequence (C7FF04 1-392 limits assumed): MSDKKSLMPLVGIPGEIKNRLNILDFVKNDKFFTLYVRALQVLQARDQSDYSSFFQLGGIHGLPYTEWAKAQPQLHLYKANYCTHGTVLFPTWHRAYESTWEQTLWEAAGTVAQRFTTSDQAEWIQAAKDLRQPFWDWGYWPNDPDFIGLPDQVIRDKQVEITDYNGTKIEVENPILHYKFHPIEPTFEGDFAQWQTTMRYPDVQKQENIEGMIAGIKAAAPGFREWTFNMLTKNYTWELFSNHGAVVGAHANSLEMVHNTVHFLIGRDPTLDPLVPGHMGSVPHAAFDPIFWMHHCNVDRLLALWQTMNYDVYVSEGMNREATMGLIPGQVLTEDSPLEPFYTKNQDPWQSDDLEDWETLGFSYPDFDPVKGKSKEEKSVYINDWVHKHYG
The experiment in a line: Inhibition mechanism, Lineweaver–Burk plots. Type of assay: biochemical. The following applies: 30 °C, pH 6.8. How it is done:
Fig. 3 Lineweaver–Burk plots for type of inhibition of mushroom tyrosinase (10 U/mL) by artocaepin E (1) for the catalysis of L-DOPA (0.2, 0.3, 0.4, 0.5, and 0.6 mM) at 30 °C, pH 6.8. Concentration of these compounds for curves I0.0, I5.0, I7.0, and I10.0 were 0.0, 5.0, 7.0, and 10.0 μM, respectively. The inset represents the plot of these compounds for determining the inhibition constant (Ki). The line is drawn using a linear lest squares fit
The dependence of absorbance (475 nm) on time was measured, and the reaction rate was calculated for all reactions (uninhibited and inhibited). Then, a Lineweaver–Burk plot was constructed, and Km and Vm values were calculated. Each measurement was performed in duplicate.

The mark [2] stands for this setting: mushroom tyrosinase, substrate L-DOPA, 0.1 M phosphate buffer pH 6.8, room temperature, read-out: Tyrosinase inhibitory activity IC50.

T1 sequence (C7FF04 1-392 limits assumed): as above

Usually IC50 stands for the concentration that gives 50% inhibition. By Ki is commonly meant the equilibrium dissociation constant of an inhibitor or competing ligand from its target. Take `C/C(=C\Cc1c(O)cc2oc(-c3ccc(O)cc3O)cc(=O)c2c1O)COC(=O)/C=C/c1ccc(O)cc1` [Compound 1, artocaepin E]: the 50% inhibitory concentration (IC50) in assay [1] (setting [2]) is 6.7 ± 0.8 µM. Besides, on mushroom tyrosinase (Lineweaver–Burk plots, L-DOPA substrate), the type of inhibition result is “competitive inhibition”. Also, the inhibition constant (Ki) on mushroom tyrosinase (mushroom tyrosinase 10 U/mL, L-DOPA 0.2-0.6 mM, read-out: inhibition constant (Ki)) was determined as 6.23 µM.
Regarding `C/C(=C\Cc1c(O)ccc2c1O[C@H](c1ccc(O)cc1)CC2=O)CO` [Compound 2, artocaepin F], the IC50 in assay [1] (setting [2]) was > 50 µM.
Same read-out and setting: with `O=c1cc(-c2ccc(O)cc2O)oc2cc(O)cc(O)c12` [Compound 3, norartocarpetin] the figure was > 50 µM.
The same measure, in the same setting: with `COc1cc(O)c2c(c1)O[C@H](c1ccc(O)cc1O)CC2=O` [Compound 4, artocarpanone] the figure was 2 ± 0.1 µM.
In the case of `O=C1C[C@@H](c2ccc(O)cc2)Oc2cc(O)ccc21` [Compound 5, liquiritigenin], in assay [1], the 50% inhibitory concentration (IC50) worked out at 22 ± 2.5 µM.
For the molecule `O=C1CC(c2ccc(O)cc2O)Oc2cc(O)cc(O)c21` (stereo not shown) [Compound 6, steppogenin], the IC50 in assay [1] (setting [2]) stood at 7.5 ± 0.5 µM. Further, the “inhibitory activity relative to 4” value in assay [1] (ratio of tyrosinase IC50 values, 6 vs 4) amounted to 3.75 fold.
For `O=C1c2c(O)cc(O)cc2O[C@H](c2ccc(O)cc2O)[C@H]1O` [Compound 7, dihydromorin], in assay [1] (setting [2]), the half-inhibitory concentration (IC50) is > 50 µM.
